Data on 8 compounds can be found in patent US6951881B2, “(1-substituted-indol-3-yl) alkylidenehydrazinecarboximidamide derivatives as 5-hydroxytryptamine-6 ligands” (Wyeth, priority 2002, dated 2005).

Like-named read-outs stand apart in the source and are kept apart here.

The assay addresses T1, human cloned 5-HT6 receptors (Homo sapiens, UniProt P50406).
T1 construct: expressed in transfected cells; host or cells: HeLa cells
In kind it is binding.

[1] abbreviates: test compound dose 100 nM, displacement of [3H]-LSD, read-out: % Inhibition.

T1 sequence (P50406 whole entry): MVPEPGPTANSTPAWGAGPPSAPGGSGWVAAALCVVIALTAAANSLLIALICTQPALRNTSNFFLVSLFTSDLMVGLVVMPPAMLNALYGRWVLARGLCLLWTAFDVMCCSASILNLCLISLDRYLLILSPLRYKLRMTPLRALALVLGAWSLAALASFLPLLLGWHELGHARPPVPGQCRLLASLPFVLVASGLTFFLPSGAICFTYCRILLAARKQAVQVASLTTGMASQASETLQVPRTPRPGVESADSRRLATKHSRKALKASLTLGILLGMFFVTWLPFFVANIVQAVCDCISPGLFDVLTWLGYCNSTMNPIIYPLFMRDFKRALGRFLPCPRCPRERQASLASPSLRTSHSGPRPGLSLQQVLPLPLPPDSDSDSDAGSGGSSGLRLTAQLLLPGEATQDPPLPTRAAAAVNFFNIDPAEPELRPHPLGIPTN

With `CC(C)c1ccc2[nH]c3c(c2c1)C(=NN(C)C1=NCCN1)CC(C)(C)C3` [Example 177, 6-isopropyl-2,2-dimethyl-1,2,3,9-tetrahydro-4H-carbazol-4-one 4,5-dihydro-1H-imidazol-2-yl(methyl)hydrazone], the inhibition at 0.1 µM under setting [1] amounted to 22.9%.

In the case of `CC(C)c1ccc2[nH]c3c(c2c1)C(=NN(C)C1=NCCN1)CC(c1ccccc1)C3` (centres unmarked) [Example 178, 6-isopropyl-2-phenyl-1,2,3,9-tetrahydro-4H-carbazol-4-one 4,5-dihydro-1H-imidazol-2-yl-(methyl)hydrazone], under setting [1], the inhibition at 0.1 µM stood at 25.6%.

On to `CC(C)c1ccc2[nH]c3c(c2c1)C(=NN(C)C1=NCCN1)CCC3` [Example 179, 6-isopropyl-1,2,3,9-tetrahydro-4H-carbazol-4-one 4,5-dihydro-1H-imidazol-2-yl(methyl)-hydrazone], for which the inhibition at 0.1 µM under setting [1] stood at 5.6%.

Consider `CN(N=C1CC(c2ccccc2)Cc2[nH]c3ccc(F)cc3c21)C1=NCCN1` (centres unmarked) [Example 180, 6-fluoro-2-phenyl-1,2,3,9-tetrahydro-4H-carbazol-4-one 4,5-dihydro-1H-imidazol-2-yl(methyl)-hydrazone], for which the inhibition at 0.1 µM under setting [1] was determined as 11.5%.

Consider `CCCCCNC(=N)NN=C1CCCc2[nH]c3ccc(Cl)cc3c21` [Example 181, 2-(6-chloro-1,2,3,9-tetrahydro-4H-carbazol-4-ylidene)-N-pentylhydrazinecarboximidamide], for which, under setting [1], the inhibition at 0.1 µM amounted to 47%.

Turning to `N=C(NN=C1CCCc2[nH]c3ccc(Cl)cc3c21)NC1CCCC1` [Example 183, 2-(6-chloro-1,2,3,9-tetrahydro-4H-carbazol-4-ylidene)-N-cyclopentylhydrazinecarboximidamide], under setting [1], the inhibition at 0.1 µM is 55.3%.

Compound `CN(N=C1CCc2[nH]c3ccc(Cl)cc3c21)C1=NCCN1` [Example 184, 7-Chloro-3,4-dihydrocyclopenta[b]indol-1(2H)-one 4,5-dihydro-1H-imidazol-2-yl-(methyl)hydrazone] gave an inhibition at 0.1 µM of 19.8%.

As for “N-benzyl-2-(6-chloro-1,2,3,9-tetrahydro-4H-carbazol-4-ylidene)hydrazinecarboximidamide [Example 182]”, the “% Inhibition” value (test compound dose 100 nM, displacement of [3H]-LSD) is 47.3%.
